Assay results published in patent US12384751B2, “Allosteric activators of the ALPHA1A-adrenergic receptor” (The Cleveland Clinic Foundation, priority 2019, dated 2025).
“Also recorded” adds a separate entry of the source.

Tests used:
α1D-AR = target: T1, α1D-AR (Homo sapiens, UniProt P25100); assay: Competition binding with [125I]HEAT at α1D-AR
T1 construct: expressed in transfected cells; host or cells: Rat-1 fibroblast cells
T1 sequence (P25100 1-572): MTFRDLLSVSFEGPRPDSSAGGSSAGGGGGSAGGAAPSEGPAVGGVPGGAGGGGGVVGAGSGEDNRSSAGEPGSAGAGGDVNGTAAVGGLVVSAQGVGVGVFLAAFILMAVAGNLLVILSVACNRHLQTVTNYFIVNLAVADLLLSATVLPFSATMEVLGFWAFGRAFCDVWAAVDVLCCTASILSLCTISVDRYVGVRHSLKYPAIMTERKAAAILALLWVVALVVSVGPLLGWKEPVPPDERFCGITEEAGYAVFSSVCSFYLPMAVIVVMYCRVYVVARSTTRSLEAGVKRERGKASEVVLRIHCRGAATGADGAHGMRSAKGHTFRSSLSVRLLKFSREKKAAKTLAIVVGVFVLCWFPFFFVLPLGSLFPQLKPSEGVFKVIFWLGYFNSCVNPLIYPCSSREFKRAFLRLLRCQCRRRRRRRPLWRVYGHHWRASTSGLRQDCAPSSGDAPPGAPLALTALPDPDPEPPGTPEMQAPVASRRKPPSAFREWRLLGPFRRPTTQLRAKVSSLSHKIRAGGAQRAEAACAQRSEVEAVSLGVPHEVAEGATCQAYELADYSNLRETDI
Procedure: Competition binding assays: These compounds were characterized for their ligand binding properties at the α1-AR subtypes. The binding affinities of Compounds 1-10 were determined in a series of competition-binding experiments with the α1-AR-selective antagonist [^125I]HEAT as the radioligand. Assays were performed in duplicate in HEM buffer, in a total assay volume of 1000 μl. Radioligand binding assays are composed of 5 ug of membranes, harvested from Rat-1 fibroblast cells expressing only one of the alpha1-AR subtypes, HEM buffer containing GTP (composed of 20 mM HEPES, pH 7.4, 1.4 mM EGTA, 12.5 mM MgCl2, pH to 7.4), 0.5 mM GTP, 35-80 pM^125I-HEAT, and various doses of norepinephrine or epinephrine and incubated with shaking at 25° C. for 1-2 hours. The above conditions will convert all the conformations of the receptor into a single low affinity site. To show both high and low affinity sites of the receptor (typically seen with GPCR agonists), the GTP is removed from the binding buffer. Nonspecific binding was determined experimentally in the presence of 10^−4 M phentolamine. Unbound radioactivity was separated from membrane-bound radioactivity by filtration through Whatman GF/C filter paper. […] Bound radioactivity remaining on the filters was counted on an ICN gamma counter operating at 79.8% efficiency. Data are analyzed using Graphpad Prism.

[1] = Blood pressure in APP (London Mutation) AD mice and WT controls; type: in vivo, mouse; conditions: 40 mg/kg/bw daily
[2] = test system: 3×TG Alzheimer's Disease (AD) mouse model; assay: Hippocampal CA1 electrophysiology (LTP, input-output, paired-pulse ratio) in 3×TG mice; type: in vivo
Procedure: AD mice were first randomized and sorted into control or treatment groups. […] 14 AD mice from each treatment group received Compound 3 in the drinking water (2.611 mg/kg/bw) to deliver a daily dose near the peak potentiation of the cAMP response in the brain at 10^−8M based upon the PAM assay and pharmacokinetics. This was achieved by adding Compound 3 to the drinking water at 32 uM, assuming the mice drink 6 ml/day, with only 10% of bioavailable drug reaching the brain. The drug was administered in the drinking water for 10 months, starting at age 2 months, then subjected to either different cognitive behavioral tests or electrophysiology at age 12 months to maximize the manifestations of AD symptoms in these mice. Mice are maintained on the drug for the duration of the studies and blinded to the operator.
At 12 months of age mice were subjected to long term potentiation (LTP) (FIG. 25).
Electrophysiology. Hippocampi are removed and slices cut 400 μm thick and immediately transferred to an oxygenated holding chamber filled with artificial cerebrospinal fluid, acclimated and transferred to recording chambers. Micropipettes are backfilled with NaCl solution and placed in the stratum radiatum. Evoked field excitatory postsynaptic potentials (fEPSPs) are measured in current clamp mode. An ISO-flex stimulator paired with a 7.5-cm bipolar tungsten-stimulating electrode is used for presynaptic stimulation of the Schaffer collateral-commissural fibers. Signals are converted from analog to digital and electronic cycling and noise filtered. Basal synaptic transmission is assessed by determining input-output curves, generated by applying a stepwise 5 μA increase in stimulation intensity. Responses are elicited every 20 seconds with duration of 100 μs per pulse. Short-term plasticity is investigated by assessing paired-pulse facilitation (PPF) by applying two pulses with interpulse intervals of 35-300 ms. A baseline response of 30 min is recorded immediately after PPF, which is followed by θ-burst stimulation (TBS) given at 80% maximal response to induce LTP. fEPSPs are recorded at 50% maximal response every 20 seconds for 90 minutes.

α1A-AR = target: T2, α1A-AR (Homo sapiens, UniProt P35348); assay: Effect of compound on binding affinity of norepinephrine, epinephrine or other ligands at α1A-AR; design: expressed in transfected cells; host or cells: Rat-1 fibroblast cells
T2 sequence (P35348 1-466): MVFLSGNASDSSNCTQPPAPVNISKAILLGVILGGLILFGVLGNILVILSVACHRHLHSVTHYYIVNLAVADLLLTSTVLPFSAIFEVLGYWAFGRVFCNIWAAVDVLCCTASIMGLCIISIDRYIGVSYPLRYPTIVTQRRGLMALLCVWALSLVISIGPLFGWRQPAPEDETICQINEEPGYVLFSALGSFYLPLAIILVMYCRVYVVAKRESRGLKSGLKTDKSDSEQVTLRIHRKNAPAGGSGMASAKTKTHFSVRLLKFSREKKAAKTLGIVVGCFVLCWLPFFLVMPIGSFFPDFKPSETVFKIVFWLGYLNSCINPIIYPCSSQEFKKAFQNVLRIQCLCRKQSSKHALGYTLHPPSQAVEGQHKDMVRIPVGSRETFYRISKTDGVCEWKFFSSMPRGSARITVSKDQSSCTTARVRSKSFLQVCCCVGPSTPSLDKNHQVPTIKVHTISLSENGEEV

Compound: CC(C)Cc1c(OCC2=NCCN2)cccc1N(C)S(C)(=O)=O [Compound 3, N-[3-(4,5-Dihydro-1H-imidazol-2-ylmethoxy)-2-isobutyl-phenyl]-N-methyl-methanesulfonamide]
- specific binding at the α1D-AR (α1D-AR): little, if any, specific binding; also recorded: no affinity
- blood pressure, treated vs placebo [1]: no changes in blood pressure
- paired pulse ratio (PPR) vs untreated, female ([2]; female 3×TG mice): higher
- basal synaptic transmission / synaptic strength (input-output) ([2]; female 3×TG mice, CA1, approaching significance): increase synaptic strength; also recorded: increased
- long term potentiation (LTP) vs untreated ([2]; female AD mice, 12 months of age, CA1): statistically significant (p<0.01)
- paired pulse ratio (PPR) vs untreated, male ([2]; male 3×TG mice): increased PPR
- effect on binding of phentolamine at the α1A-AR (α1A-AR; 10^−5M): no effect; also recorded: does not change the affinity
- effect on binding of cirazoline at the α1A-AR (α1A-AR; 10^−5M and 10^−7M): does not affect; also recorded: no effect
